Source: patent US8637470B2, “Small humanin-like peptides” (The Regents of the University of California, priority 2008, dated 2014)
“Also recorded” adds a separate entry of the source. Where no end group is shown, it is not given here.

Columns and labels:
[1] = system: Mouse primary cortical neurons; test: Protection of primary cortical neurons from Aβ-induced cell death (Calcein-AM); assay type: cell-based; details: 72 h
Description: SHLPs protect neurons from Aβ-induced apoptosis. When it was first discovered, HN was described as a potent neural survival factor with clinical implications as a therapeutic agent against neurodegenerative diseases such as Alzheimer's Disease. Since many of the SHLPs appear to be functionally related to HN, SHLPs were tested as potential neuroprotective factors. Mouse primary cortical neurons were incubated with 25 μM Aβ1-43 in the presence or absence of 100 nM SHLP2 or 3, HNG (positive control) or 1 nM colivelin (positive control). After 72 h, neuronal viability was assessed by Calcein-AM staining followed by fluorescence microscopy (FIG. 13).

[2] = system: Mouse NIT-1 insulinoma β-cells; test: Apoptosis ELISA (fragmentation of histone-associated DNA) in NIT-1 cells; assay type: cell-based; details: NIT-1, serum starved 24 h, then 24 h with 100 nM peptide
Description: (§1) SHLPs are anti-apoptotic in 22RV1 prostate cancer cells and NIT-1 β-cells. […] Mouse NIT-1 insulinoma β-cells and 22RV1 human prostate cancer cells were serum starved for 24 h, followed by 24 h incubation with 100 nM scrambled control peptide, HN or SHLPs. Apoptosis was assessed and quantified by ELISA for fragmentation of histone-associated DNA.
(§2) ERK activation is necessary for SHLP-induced inhibition of apoptosis in NIT-1 and 22RV1 cells. To determine the significance of ERK activation for apoptosis inhibition by SHLPs 2 and 3, PD98059 (PD), a specific chemical inhibitor of ERK1/2, was utilized. 22RV1 and NIT-1 cells were serum starved for 24 h in the presence or absence of 25 μM PD or 1 μM wortmannin (PI3-kinase inhibitor; negative control), followed by 24 h incubation with […] scrambled control peptide, SHLP2 or SHLP3. Apoptosis was then assessed by ELISA for fragmentation of histone-associated DNA.
Role of IGFBP-3 in effects of SHLPs on cell survival. Since IGFBP-3 is an important regulator of HN action, IGFBP-3 was tested for a possible role in regulating the anti- or pro-apoptotic actions of SHLPs. NIT-1 cells were incubated with 1 μg/ml IGFBP-3±0, 10, 100 or 1000 nM SHLP2 or 3 for 24 h. Apoptosis induction was assessed by ELISA for fragmentation of histone-associated DNA.
Co-incubation of SHLPs. To evaluate therapeutic uses involving co-treatment with SHLPs, the effect of HN±SHLPs on apoptosis was tested in both 22RV1 and NIT-1 cells. Cells were incubated in SF media for 24 h followed by 24 h with 100 nM HN, SHLP or peptide combination. Apoptosis was assessed by ELISA for fragmentation of histone-associated DNA. Cells were treated with all possible double peptide combinations. Although many peptide combinations had no additive or combined effects compared with the actions of the peptides individually, co-treatment with certain combinations led to unexpected functional changes (FIG. 11). […] Thus, specific SHLPs may either act on complementary pathways, or interact with each other, leading to change of function of one or both peptides. When the same experiments were repeated in NIT-1 cells, similar, but different, change of function effects were observed (FIG. 11B).

[3] = biological target: biotinylated-HN (Homo sapiens, UniProt Q8IVG9); test: Dot-blot binding to biotinylated-HN; details: 2, 5 or 10 nmol peptide dotted on nitrocellulose
Description: To test a dimerization hypothesis, we performed a dot-blot using biotinylated-HN. Two, 5 or 10 nmol IGF-I (negative control), HN (positive control) or SHLP peptide were dotted on to nitrocellulose membrane, and their ability to bind to biotinylated-HN was assessed immunologically. […] Specific interactions that occur may be determined using, e.g., dot blots with biotinylated SHLPs, and/or antibodies against specific SHLPs.

[4] = system: S. cerevisiae; test: Yeast heat shock survival; assay type: cell-based; details: 10 μM peptide, 90° heat shock
Description: SHLPs enhance stress resistance in yeast. The ability of SHLPs to enhance stress resistance in yeast was tested. The ability of yeast to survive heat shock after being treated with different peptides is a commonly used method to test the ability of peptides to enhance yeast survival.

[5] = system: 22RV1 human prostate cancer cells; test: Apoptosis ELISA (fragmentation of histone-associated DNA) in 22RV1 cells; assay type: cell-based; details: 22RV1, serum starved 24 h, then 24 h with 100 nM peptide
Description: as §1, §2
STAT3 Activation is also necessary for SHLP-induced cell survival in 22RV1 cells. Since SHLPs 2 and 3 both stimulate STAT3 phosphorylation in addition to ERK activation, the hypothesis that STAT3 activation occurs downstream of ERK1/2 was tested using a specific chemical inhibitor against STAT3, stattic. 22RV1 cells were incubated for 24 h in SF media in the presence or absence of 20 μM stattic followed by 24 h incubation with 100 nM scrambled control peptide, SHLP2 or SHLP3. Apoptosis was assessed by ELISA for fragmentation of histone-associated DNA. […]

[6] = system: 22RV1 human prostate cancer cells; test: Cell proliferation (cell number by MTT/MTS cleavage) in 22RV1 cells; assay type: cell-based; details: 22RV1, 100 nM peptide, 72 h
Description: (§3) SHLPs exert distinct effects on cell proliferation. Whether SHLPs have the capacity to influence cell proliferation, in addition to their intrinsic effects on apoptosis induction, was also investigated. Mouse NIT-1 insulinoma β-cells and 22RV1 human prostate cancer cells were serum starved for 24 h, followed by 72 h incubation with 100 nM scrambled control peptide, HN or SHLPs. Cell number, as a measure of cell proliferation, was assessed by cleavage of MTT substrate.
Pro-apoptotic effect on human prostate cancer cells in vitro. To assess the ability of SHLP6 to induce apoptosis in human prostate cancer cells, PC-3, 22RV1 or DU145 cells were incubated in serum free (SF) media for 24 h followed by 24 h incubation with 1 μM scrambled (control) peptide or SHLP6. Apoptosis was assessed by ELISA for fragmentation of histone-associated DNA. In each cell line tested, SHLP6 induced apoptosis by at least 2-fold (FIG. 2), confirming highly significant physiological effects of this novel peptide. To determine whether the effects of SHLP6 were specific to induction of apoptosis, or if it also elicited growth-inhibitory effects, PC-3, DU-145, 22RV1, LAPC4 and LNCaP cells were incubated in SF media for 24 h followed by 72 h incubation with 1 μM SHLP6. Cell number, as a measure of cell proliferation, was assessed by cleavage of MTS substrate.

[7] = system: Mouse NIT-1 insulinoma β-cells; test: Cell proliferation (cell number by MTT/MTS cleavage) in NIT-1 cells; assay type: cell-based; details: NIT-1, 100 nM peptide, 72 h
Description: as §3

[8] = system: ERK; test: ERK activation in 22RV1 cells (immunoblotting, ELISA); assay type: cell-based, human; details: 22RV1, 100 nM
Description: Characterization of the intracellular signaling pathways activated by SHLPs. To determine a mechanism for the growth and apoptosis effects of SHLPs, SHLPs were tested for the ability to modulate activation of intracellular signaling pathways. 22RV1 cells in SF media were treated with 100 nM SHLP 1-5 and whole cell extracts were harvested after 15 min, 30 min, 2 h, 4 h, 8 h and 24 h. Proteins were separated by SDS-PAGE and analyzed by immunoblotting.
To test the hypothesis that SHLPs may act in concert to regulate intracellular signaling, 22RV1 cells were co-treated with SHLPs 2 and 3, and ERK activation was assessed.
Since HN causes activation of STAT3, SHLPs 2 and 3 were also tested for effects on STAT3. […] To more accurately quantify the ERK phosphorylation caused by SHLPs 2 and 3, we repeated the experiment as described above but used a commercially available ERK ELISA to assess ERK phosphorylation. Optimal ERK activation by SHLP2 was 9-fold after 24 h, whilst optimal activation by SHLP3 was 12-fold after 2 h (FIG. 5).

[9] = system: 22RV1 prostate cancer xenografts; details: mouse, in vivo, ip, 4 mg/kg/day
Description: Inhibition of 22RV1 xenograft tumor growth and angiogenesis in vivo. In light of the pro-apoptotic actions of SHLP6 in vitro and the association of many cancers with mitochondrial dysfunction, the effect of SHLP6 on tumor growth was investigated in vivo. SCID mice harboring 22RV1 prostate cancer xenografts were treated with 4 mg/kg/day SHLP6 or scrambled control peptide by daily i.p. injection for 7 days.
To assess the mechanism underlying the reduction in tumor growth, tumor apoptosis (TUNEL), angiogenesis (VEGF) and tumor cell proliferation (PCNA; not shown) were assessed by IHC (FIG. 19). […] SHLP6 therefore has great potential as an anti-cancer agent.

Substance | Binding to biotinylated-HN (dot-blot) [3] | Apoptosis (fragmentation of histone-associated DNA) [5] | Cell number as a measure of cell proliferation [6] | Cell number as a measure of cell proliferation [7] | further results
HNG: HNG (S14G), hyper-potent HN analog (MAPRGFSCLLLLTGEIDLPVKRRA; Humanin; UniProt Q8IVG9 1-24, looked up, variant S14G) [reference compound] | – | – | – | – | Neuronal viability against Aβ-induced cell death ([1]; 25 μM Aβ1-43, 100 nM peptide): inhibited
MAPRGFSCLLLLTSEIDLPVKRRA [HN, reference compound] | dimerize/multimerize with itself | – | – | – | Apoptosis (fragmentation of histone-associated DNA) [2]: anti-apoptotic effects; Yeast survival of heat shock [4]: allowed the yeast to withstand 90° heat shock
MCHWAGGASNTGDARGDVFGKQAG [SHLP1, small humanin-like peptide, mtDNA 2490-2561] | no interaction | minimal effect | slightly stimulated the proliferation | slightly stimulated the proliferation | Duration of sustained ERK phosphorylation [8]: approximately 8 h; Increase in ERK phosphorylation (immunoblotting) ([8]; within 30 min): 5 fold
MLDQDIPMVQPLLKVRLFND [SHLP6] | – | – | – | – | Signs of toxicity [9]: no detectable signs of toxicity
MLEVMFLVNRRGKICRVPFTFFNLSL [SHLP4, small humanin-like peptide, mtDNA 2446-2524] | very strong interactions; also recorded: binds | minimal effect | slightly stimulated the proliferation | slightly stimulated the proliferation | Apoptosis (fragmentation of histone-associated DNA) [2]: anti-apoptotic effects
MYCSEVGFCSEVAPTEIFNAGLVV [SHLP5, small humanin-like peptide, mtDNA 2785-2856] | – | minimal effect | slightly stimulated the proliferation | slightly stimulated the proliferation | ERK activation profile (immunoblotting) ([8]; 15 min to 24 h): no observable effect
colivelin [reference compound] | – | – | – | – | Neuronal viability against Aβ-induced cell death ([1]; 25 μM Aβ1-43, 1 nM colivelin): inhibited
